From patent publication US8846928B2 (Portola Pharmaceuticals, Inc., priority 2010, dated 2014)

The compounds below were run against T1, full length active recombinant SYK enzyme (Homo sapiens, UniProt P43405) (assay: Inhibition of Syk tyrosine phosphorylation activity (LANCE TR-FRET kinase assay)).
T1 construct: full length active recombinant SYK enzyme (Millipore, Calif.); purchased Millipore
Assay type: biochemical

SMILES | IC50
COC[C@H](CN)Nc1nc(Nc2cccc(-n3nccn3)c2)c(C(N)=O)cc1F [Example 91, (S)-2-(3-(2H-1,2,3-triazol-2-yl)phenylamino)-6-(1-amino-3-methoxypropan-2-ylamino)-5-fluoronicotinamide] | 1 to 10 nM
CC[C@H](CN)Nc1nc(Nc2cccc(-c3ncccn3)c2)c(C(N)=O)cc1F [Example 92, (R)-6-(1-aminobutan-2-ylamino)-5-fluoro-2-(3-(pyrimidin-2-yl)phenylamino)nicotinamide] | 10 to 100 nM
CC[C@H](CN)Nc1nc(Nc2ccc3ncsc3c2)c(C(N)=O)cc1F [Example 93, (R)-6-(1-aminobutan-2-ylamino)-2-(benzo[d]thiazol-6-ylamino)-5-fluoronicotinamide] | 1 to 10 nM
CC[C@H](CN)Nc1nc(Nc2cncc(C)c2)c(C(N)=O)cc1F [Example 95, (R)-6-(1-aminobutan-2-ylamino)-5-fluoro-2-(5-methylpyridin-3-ylamino)nicotinamide] | 10 to 100 nM
CC[C@@H](Nc1nc(Nc2ccc3ccncc3c2)c(C(N)=O)cc1F)C(N)=O [Example 98, (R)-6-(1-amino-1-oxobutan-2-ylamino)-5-fluoro-2-(isoquinolin-7-ylamino)nicotinamide] | 10 to 100 nM
CC[C@@H](Nc1nc(Nc2ccc3ncccc3c2)c(C(N)=O)cc1F)C(N)=O [Example 100] | 10 to 100 nM
COC[C@H](N)CNc1ccc(C(N)=O)c(Nc2cccc(C)c2)n1 [Example 103, (R)-2-(m-toluidino)-6-(2-amino-3-methoxypropylamino)nicotinamide] | 100 to 1000 nM
Cc1cccc(Nc2nc(N[C@H](C)C(N)=O)ccc2C(N)=O)c1 [Example 104, (R)-2-(m-toluidino)-6-(1-amino-1-oxopropan-2-ylamino)nicotinamide] | 100 to 1000 nM
Cc1cccc(Nc2nc(N[C@@H]3CCCC[C@@H]3N)c(C#N)cc2C(N)=O)c1 [Example 107, 6-((1R,2S)-2-aminocyclohexylamino)-5-cyano 2-(m-tolylamino)nicotinamide] | 1 to 10 nM
C[C@H](CN)Nc1nc(Nc2cccc(-n3nccn3)c2)c(C(N)=O)cc1C#N [Example 109, (R)-2-(3-(2H-1,2,3-triazol-2-yl)phenylamino)-6-(1-aminopropan-2-ylamino)-5-cyanonicotinamide] | 10 to 100 nM
N#Cc1cc(C(N)=O)c(Nc2cccc(-n3nccn3)c2)nc1NC[C@@H](N)C1CC1 [Example 111, (S)-2-(3-(2H-1,2,3-triazol-2-yl)phenylamino)-6-(2-amino-2-cyclopropylethylamino)-5-cyanonicotinamide] | 100 to 1000 nM
C[C@H](CN)Nc1nc(Nc2cccc3nn(C)cc23)c(C(N)=O)cc1C#N [Example 112, (R)-6-(1-aminopropan-2-ylamino)-5-cyano-2-(2-methyl-2H-indazol-4-ylamino)nicotinamide] | 10 to 100 nM
N#Cc1cc(C(N)=O)c(Nc2ccc3ncccc3c2)nc1N[C@@H]1CCCC[C@@H]1N [Example 113, 6-((1R,2S)-2-aminocyclohexylamino)-5-cyano-2-(quinolin-6-ylamino)nicotinamide] | 1 to 10 nM
C[C@H](CN)Nc1nc(Nc2ccc3ncccc3c2)c(C(N)=O)cc1C#N [Example 114, (R)-6-(1-aminopropan-2-ylamino)-5-cyano-2-(quinolin-6-ylamino)nicotinamide] | 10 to 100 nM
Cn1cc2c(Nc3nc(N[C@@H]4CCCC[C@@H]4N)c(C#N)cc3C(N)=O)cccc2n1 [Example 115, 6-((1R,2S)-2-aminocyclohexylamino)-5-cyano-2-(2-methyl-2H-indazol-4-ylamino)nicotinamide] | 1 to 10 nM
NC(=O)c1cc(C(N)=O)c(N[C@@H]2CCCC[C@@H]2N)nc1Nc1cccc(-n2nccn2)c1 [Example 116, 2-(3-(2H-1,2,3-triazol-2-yl)phenylamino)-6-((1R,2S)-2-aminocyclohexylamino)pyridine-3,5-dicarboxamide] | 100 to 1000 nM
N#Cc1cc(C(N)=O)c(Nc2ccc3ncsc3c2)nc1N[C@@H]1CCCC[C@@H]1N [Example 118, 6-((1R,2S)-2-aminocyclohexylamino)-2-(benzo[d]thiazol-6-ylamino)-5-cyanonicotinamide] | 1 to 10 nM
N#Cc1cc(C(N)=O)c(Nc2ccc3ncsc3c2)nc1NC[C@@H](N)C1CC1 [Example 119, (S)-6-(2-amino-2-cyclopropylethylamino)-2-(benzo[d]thiazol-6-ylamino)-5-cyanonicotinamide] | 10 to 100 nM
CC(C)C[C@H](CN)Nc1nc(Nc2ccc3ncsc3c2)c(C(N)=O)cc1C#N [Example 123, (R)-6-(1-amino-4-methylpentan-2-ylamino)-2-(benzo[d]thiazol-6-ylamino)-5-cyanonicotinamide] | 1 to 10 nM
CC(C)C[C@@H](Nc1nc(Nc2ccc3ncccc3c2)c(C(N)=O)cc1C#N)C(N)=O [Example 124, (R)-6-(1-amino-4-methyl-1-oxopentan-2-ylamino)-2-(quinolin-6-ylamino)-5-cyanonicotinamide] | 10 to 100 nM
CC(C)[C@@H](Nc1nc(Nc2cccc(-n3nccn3)c2)c(C(N)=O)cc1C#N)C(N)=O [Example 126, (R)-2-(3-(2H-1,2,3-triazol-2-yl)phenylamino)-6-(1-amino-3-methyl-1-oxobutan-2-ylamino)-5-cyanonicotinamide] | > 1000 nM
CC(C)[C@H](CN)Nc1nc(Nc2ccc3ncccc3c2)c(C(N)=O)cc1C#N [Example 128, (R)-6-(1-amino-3-methylbuttan-2-ylamino)-5-cyano-2-(quinolin-6-ylamino)nicotinamide] | 1 to 10 nM
N#Cc1cc(C(N)=O)c(Nc2cnc3ccccc3c2)nc1N[C@@H]1CCCC[C@@H]1N [Example 129] | 1 to 10 nM
NC(=O)c1ccc(N[C@@H]2CCCC[C@@H]2N)nc1Nc1cccc(-n2nccn2)c1 [Example 132, 2-(3-(2H-1,2,3-triazol-2-yl)phenylamino)-6-((1R,2S)-2-aminocyclohexylamino)nicotinamide] | 1 to 10 nM

Results, then the compound that gave them:

IC50 | SMILES
1 to 10 nM | NC(=O)c1cc(F)c(N[C@@H]2CCCC[C@@H]2N)nc1Nc1cncc(F)c1 [Example 89, 6-((1R,2S)-2-aminocyclohexylamino)-5-fluoro-2-(5-fluoropyridin-3-ylamino)nicotinamide]
1 to 10 nM | CC[C@H](CN)Nc1nc(Nc2ccc3ncccc3c2)c(C(N)=O)cc1F [Example 94, (R)-6-(1-aminobutan-2-ylamino)-5-fluoro-2-(quinolin-6-ylamino)nicotinamide]
10 to 100 nM | CC[C@H](CN)Nc1nc(Nc2cncc(OC)c2)c(C(N)=O)cc1F [Example 96, (R)-6-(1-aminobutan-2-ylamino)-5-fluoro-2-(5-methoxypyridin-3-ylamino)nicotinamide]
10 to 100 nM | CC[C@@H](Nc1nc(Nc2ccc3cccnc3c2)c(C(N)=O)cc1F)C(N)=O [Example 97, (R)-6-(1-amino-1-oxobutan-2-ylamino)-5-fluoro-2-(quinolin-7-ylamino)nicotinamide]
10 to 100 nM | CC[C@@H](Nc1nc(Nc2ccc3cnccc3c2)c(C(N)=O)cc1F)C(N)=O [Example 99]
1 to 10 nM | Cc1cccc(Nc2nc(N[C@@H]3CCCC[C@@H]3N)ccc2C(N)=O)c1 [Example 102, 6-((1R,2S)-2-aminocyclohexylamino)-2-(m-tolylamino)nicotinamide]
100 to 1000 nM | Cc1cccc(Nc2nc(N[C@H](CC(C)C)C(N)=O)ccc2C(N)=O)c1 [Example 105, (R)-6-(1-amino-4-methyl-1-oxopentan-2-ylamino)-2-(m-tolylamino)nicotinamide]
1 to 10 nM | N#Cc1cc(C(N)=O)c(Nc2cccc(-n3nccn3)c2)nc1N[C@@H]1CCCC[C@@H]1N [Example 106, 2-(3-(2H-1,2,3-triazol-2-yl)phenylamino)-6-((1R,2S)-2-aminocyclohexylamino)-5-cyanonicotinamide]
10 to 100 nM | C[C@H](N)CNc1nc(Nc2cccc(-n3nccn3)c2)c(C(N)=O)cc1C#N [Example 108, (S)-2-(3-(2H-1,2,3-triazol-2-yl)phenylamino)-6-(2-aminopropylamino)-5-cyanonicotinamide]
1 to 10 nM | CC(C)C[C@H](CN)Nc1nc(Nc2cccc(-n3nccn3)c2)c(C(N)=O)cc1C#N [Example 110, (R)-2-(3-(2H-1,2,3-triazol-2-yl)phenylamino)-6-(1-amino-4-methylpentan-2-ylamino)-5-cyanonicotinamide]
1 to 10 nM | N#Cc1cc(C(N)=O)c(Nc2ccc3[nH]ncc3c2)nc1N[C@@H]1CCCC[C@@H]1N [Example 117]
1 to 10 nM | Cn1ncc2c(Nc3nc(N[C@@H]4CCCC[C@@H]4N)c(C#N)cc3C(N)=O)cccc21 [Example 120, 6-((1R,2S)-2-aminocyclohexylamino)-5-cyano-2-(1-methyl-1H-indazol-4-ylamino)nicotinamide]
10 to 100 nM | N#Cc1cc(C(N)=O)c(Nc2ccc(-n3cccn3)cc2)nc1N[C@@H]1CCCC[C@@H]1N [Example 121, 2-(4-(1H-pyrazol-1-yephenylamino)-6-(1R,2S)-2-aminocyclohexylamino)-5-cyanonicotinamide]
1 to 10 nM | CC(C)C[C@H](CN)Nc1nc(Nc2ccc3ncccc3c2)c(C(N)=O)cc1C#N [Example 122, (R)-6-(1-amino-4-methylpentan-2-ylamino)-5-cyano-2-(quinolin-6-ylamino)nicotinamide]
100 to 1000 nM | CC(C)C[C@@H](Nc1nc(Nc2cccc(-n3nccn3)c2)c(C(N)=O)cc1C#N)C(N)=O [Example 125, (R)-2-(3-(2H-1,2,3-triazol-2-yl)phenylamino)-6-(1-amino-4-methyl-1-oxopentan-2-ylamino)-5-cyanonicotinamide]
1 to 10 nM | N#Cc1cc(C(N)=O)c(Nc2cccc(-c3ncccn3)c2)nc1N[C@@H]1CCCC[C@@H]1N [Example 130]
1 to 10 nM | N#Cc1cc(C(N)=O)c(Nc2cccc(-c3ccccn3)c2)nc1N[C@@H]1CCCC[C@@H]1N [Example 131, 6-((1R,2S)-2-aminocyclohexylamino)-5-cyano-2-(3-(pyridin-2-yl)phenylamino)nicotinamide]
10 to 100 nM | NC(=O)c1ccc(N[C@@H]2CCCC[C@@H]2N)nc1Nc1cccc(-c2ncccn2)c1 [Example 133, 2-(3-(pyrimidin-2-yl)phenylamino)-6-((1R,2S)-2-aminocyclohexylamino)nicotinamide]
